Experimental data from patent US20220412955A1, “A MODEL OF CLINICAL SYNERGY IN CANCER” (priority 2019, published 2022).

Test system: primary MM cells
Format: cell-based
Details: patient 210's primary MM cells, 0.05 μM, interval of 120 hours
Procedure: Each well was imaged every 30 minutes for a total duration of up to 6 days.

CC(C)C[C@H](NC(=O)[C@H](CCc1ccccc1)NC(=O)CN1CCOCC1)C(=O)N[C@@H](Cc1ccccc1)C(=O)N[C@@H](CC(C)C)C(=O)[C@@]1(C)CO1 [carfilzomib]
delay between start of treatment and initiation of cell death: ~30 h
